The source of these data is PubChem BioAssay (NCI).

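Results reflect a 48-hour exposure of cells in 96-well plates to compound at five concentrations. TGI: total growth inhibition.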

The first assay has as its system HOP-62 NSCLC. Briefly: inhibition of tumour cell growth, NCI panel, 48 h.
`CC1=NN(c2cccc(Cl)c2)C2(SCC(=O)N2c2nc3ccccc3s2)/C1=C\c1ccccc1O` (stereo not drawn) displayed a TGI of 54.7 µM.
The same measure, in the same setting: as for `O=C(Nc1nccs1)c1c(O)nc2sccn2c1=O`, the figure is above 10 µM.

In another assay the test system is HOP-92 NSCLC. Nature of the assay: inhibition of tumour cell growth, NCI panel, 48 h.
`COC(=O)C1=C(C)NC(C)=C(C(=O)OCCCN2CCC(c3ccccc3)(c3ccccc3)CC2)C1c1cccc([N+](=O)[O-])c1` (stereo not drawn) showed a TGI of 4.26 µM.
In turn, `CC1=NN(c2cccc(Cl)c2)C2(SCC(=O)N2c2nc3ccccc3s2)/C1=C\c1ccccc1O` (stereo not drawn) gave a TGI of 46.1 µM.

The test system of the next assay is HS 578T breast. Briefly: inhibition of tumour cell growth, NCI panel, 48 h.
The compound `COc1cc(C2c3cc4c(cc3OC(C)(O)C2C)OCO4)cc(OC)c1OC` (stereo not drawn) showed a TGI above 100 µM.
On the same count and under the same terms, as for `COC(=O)C1=C(C)NC(C)=C(C(=O)OCCCN2CCC(c3ccccc3)(c3ccccc3)CC2)C1c1cccc([N+](=O)[O-])c1` (stereo not drawn), the figure is 4.57 µM; as for `CC1=NN(c2cccc(Cl)c2)C2(SCC(=O)N2c2nc3ccccc3s2)/C1=C\c1ccccc1O` (stereo not drawn), 65.5 µM.
On the same count and under the same terms, with `O=C(Nc1nccs1)c1c(O)nc2sccn2c1=O` the figure was above 10 µM.

The subject of a further assay is HT29 colon. Nature of the assay: inhibition of tumour cell growth, NCI panel, 48 h.
Take `COc1cc(C2c3cc4c(cc3OC(C)(O)C2C)OCO4)cc(OC)c1OC` (stereo not drawn): the TGI was above 100 µM.
Same read-out and setting: as for `COC(=O)C1=C(C)NC(C)=C(C(=O)OCCCN2CCC(c3ccccc3)(c3ccccc3)CC2)C1c1cccc([N+](=O)[O-])c1` (stereo not drawn), the figure is 2.71 µM; as for `CC1=NN(c2cccc(Cl)c2)C2(SCC(=O)N2c2nc3ccccc3s2)/C1=C\c1ccccc1O` (stereo not drawn), 67.4 µM; as for `O=C(Nc1nccs1)c1c(O)nc2sccn2c1=O`, above 10 µM.

The subject of a further assay is IGROV1 ovarian. Nature of the assay: inhibition of tumour cell growth, NCI panel, 48 h.
In the case of `COc1cc(C2c3cc4c(cc3OC(C)(O)C2C)OCO4)cc(OC)c1OC` (stereo not drawn), the TGI was found to be 76.2 µM.
The same measure, in the same setting: with `COC(=O)C1=C(C)NC(C)=C(C(=O)OCCCN2CCC(c3ccccc3)(c3ccccc3)CC2)C1c1cccc([N+](=O)[O-])c1` (stereo not drawn) the figure was 3.21 µM; with `CC1=NN(c2cccc(Cl)c2)C2(SCC(=O)N2c2nc3ccccc3s2)/C1=C\c1ccccc1O` (stereo not drawn), 80.9 µM; with `O=C(Nc1nccs1)c1c(O)nc2sccn2c1=O`, above 10 µM.

Another assay concerns K-562 leukemia. Briefly: inhibition of tumour cell growth, NCI panel, 48 h.
`COc1cc(C2c3cc4c(cc3OC(C)(O)C2C)OCO4)cc(OC)c1OC` (stereo not drawn) showed a TGI of 11.9 µM.
Same read-out and setting: with `COC(=O)C1=C(C)NC(C)=C(C(=O)OCCCN2CCC(c3ccccc3)(c3ccccc3)CC2)C1c1cccc([N+](=O)[O-])c1` (stereo not drawn) the figure was above 100 µM; with `CC1=NN(c2cccc(Cl)c2)C2(SCC(=O)N2c2nc3ccccc3s2)/C1=C\c1ccccc1O` (stereo not drawn), above 100 µM.

The subject of another assay is KM12 colon. Briefly: inhibition of tumour cell growth, NCI panel, 48 h.
`COc1cc(C2c3cc4c(cc3OC(C)(O)C2C)OCO4)cc(OC)c1OC` (stereo not drawn) yielded a TGI of 57.6 µM.
In turn, `COC(=O)C1=C(C)NC(C)=C(C(=O)OCCCN2CCC(c3ccccc3)(c3ccccc3)CC2)C1c1cccc([N+](=O)[O-])c1` (stereo not drawn) gave a TGI of 3.21 µM.
Turning to `CC1=NN(c2cccc(Cl)c2)C2(SCC(=O)N2c2nc3ccccc3s2)/C1=C\c1ccccc1O` (stereo not drawn), the TGI was 45.1 µM.
Still for that read-out and setting: with `O=C(Nc1nccs1)c1c(O)nc2sccn2c1=O` the figure was above 10 µM.

The subject of a further assay is LOX IMVI melanoma. Nature of the assay: inhibition of tumour cell growth, NCI panel, 48 h.
`COc1cc(C2c3cc4c(cc3OC(C)(O)C2C)OCO4)cc(OC)c1OC` (stereo not drawn) had a TGI above 100 µM.
Compound `COC(=O)C1=C(C)NC(C)=C(C(=O)OCCCN2CCC(c3ccccc3)(c3ccccc3)CC2)C1c1cccc([N+](=O)[O-])c1` (stereo not drawn) displayed a TGI of 3.2 µM.
On to `CC1=NN(c2cccc(Cl)c2)C2(SCC(=O)N2c2nc3ccccc3s2)/C1=C\c1ccccc1O` (stereo not drawn), for which the TGI was above 100 µM.
The compound `O=C(Nc1nccs1)c1c(O)nc2sccn2c1=O` showed a TGI above 10 µM.

A further assay has as its system M14 melanoma. Nature of the assay: inhibition of tumour cell growth, NCI panel, 48 h.
`COC(=O)C1=C(C)NC(C)=C(C(=O)OCCCN2CCC(c3ccccc3)(c3ccccc3)CC2)C1c1cccc([N+](=O)[O-])c1` (stereo not drawn) displayed a TGI of 3.13 µM.
On the same count and under the same terms, as for `CC1=NN(c2cccc(Cl)c2)C2(SCC(=O)N2c2nc3ccccc3s2)/C1=C\c1ccccc1O` (stereo not drawn), the figure is 55.4 µM; as for `O=C(Nc1nccs1)c1c(O)nc2sccn2c1=O`, above 10 µM.

Another assay deals with MALME-3M melanoma. Nature of the assay: inhibition of tumour cell growth, NCI panel, 48 h.
Turning to `COc1cc(C2c3cc4c(cc3OC(C)(O)C2C)OCO4)cc(OC)c1OC` (stereo not drawn), the TGI was above 100 µM.
The same measure, in the same setting: as for `COC(=O)C1=C(C)NC(C)=C(C(=O)OCCCN2CCC(c3ccccc3)(c3ccccc3)CC2)C1c1cccc([N+](=O)[O-])c1` (stereo not drawn), the figure is 3.66 µM; as for `O=C(Nc1nccs1)c1c(O)nc2sccn2c1=O`, above 10 µM.

In the next assay the test system is MCF7 breast. Nature of the assay: inhibition of tumour cell growth, NCI panel, 48 h.
In the case of `COc1cc(C2c3cc4c(cc3OC(C)(O)C2C)OCO4)cc(OC)c1OC` (stereo not drawn), the TGI was above 100 µM.
On the same count and under the same terms, with `COC(=O)C1=C(C)NC(C)=C(C(=O)OCCCN2CCC(c3ccccc3)(c3ccccc3)CC2)C1c1cccc([N+](=O)[O-])c1` (stereo not drawn) the figure was 3.74 µM; with `CC1=NN(c2cccc(Cl)c2)C2(SCC(=O)N2c2nc3ccccc3s2)/C1=C\c1ccccc1O` (stereo not drawn), above 100 µM.
The same measure, in the same setting: as for `O=C(Nc1nccs1)c1c(O)nc2sccn2c1=O`, the figure is above 10 µM.

The test system of the next assay is MDA-MB-231 breast. Briefly: inhibition of tumour cell growth, NCI panel, 48 h.
In turn, `COc1cc(C2c3cc4c(cc3OC(C)(O)C2C)OCO4)cc(OC)c1OC` (stereo not drawn) returned a TGI of 24 µM.
The same measure, in the same setting: as for `COC(=O)C1=C(C)NC(C)=C(C(=O)OCCCN2CCC(c3ccccc3)(c3ccccc3)CC2)C1c1cccc([N+](=O)[O-])c1` (stereo not drawn), the figure is 2.65 µM; as for `CC1=NN(c2cccc(Cl)c2)C2(SCC(=O)N2c2nc3ccccc3s2)/C1=C\c1ccccc1O` (stereo not drawn), 67.9 µM; as for `O=C(Nc1nccs1)c1c(O)nc2sccn2c1=O`, above 10 µM.

In another assay the test system is MDA-MB-435. Briefly: inhibition of tumour cell growth, NCI panel, 48 h.
In turn, `COc1cc(C2c3cc4c(cc3OC(C)(O)C2C)OCO4)cc(OC)c1OC` (stereo not drawn) showed a TGI above 100 µM.
The same measure, in the same setting: with `COC(=O)C1=C(C)NC(C)=C(C(=O)OCCCN2CCC(c3ccccc3)(c3ccccc3)CC2)C1c1cccc([N+](=O)[O-])c1` (stereo not drawn) the figure was 3.02 µM; with `CC1=NN(c2cccc(Cl)c2)C2(SCC(=O)N2c2nc3ccccc3s2)/C1=C\c1ccccc1O` (stereo not drawn), 60.2 µM.
On the same count and under the same terms, as for `O=C(Nc1nccs1)c1c(O)nc2sccn2c1=O`, the figure is above 10 µM.

The test system of another assay is MDA-N. Briefly: inhibition of tumour cell growth, NCI panel, 48 h.
Turning to `COc1cc(C2c3cc4c(cc3OC(C)(O)C2C)OCO4)cc(OC)c1OC` (stereo not drawn), the TGI was 0.258 µM.
Same read-out and setting: with `COC(=O)C1=C(C)NC(C)=C(C(=O)OCCCN2CCC(c3ccccc3)(c3ccccc3)CC2)C1c1cccc([N+](=O)[O-])c1` (stereo not drawn) the figure was 3.89 µM.
On the same count and under the same terms, with `CC1=NN(c2cccc(Cl)c2)C2(SCC(=O)N2c2nc3ccccc3s2)/C1=C\c1ccccc1O` (stereo not drawn) the figure was 53.4 µM; with `O=C(Nc1nccs1)c1c(O)nc2sccn2c1=O`, above 10 µM.

The next assay has as its system MOLT-4 leukemia. Briefly: inhibition of tumour cell growth, NCI panel, 48 h.
`COc1cc(C2c3cc4c(cc3OC(C)(O)C2C)OCO4)cc(OC)c1OC` (stereo not drawn) returned a TGI of 25.9 µM.
On the same count and under the same terms, as for `COC(=O)C1=C(C)NC(C)=C(C(=O)OCCCN2CCC(c3ccccc3)(c3ccccc3)CC2)C1c1cccc([N+](=O)[O-])c1` (stereo not drawn), the figure is 10 µM; as for `CC1=NN(c2cccc(Cl)c2)C2(SCC(=O)N2c2nc3ccccc3s2)/C1=C\c1ccccc1O` (stereo not drawn), 42.3 µM.
The same measure, in the same setting: as for `O=C(Nc1nccs1)c1c(O)nc2sccn2c1=O`, the figure is above 10 µM.
